The source of these data is patent US4213998A, “Inhibition of lipogenesis” (Shell Oil Company, priority 1979, dated 1980).

This assay concerns swine adipose tissue. The assay can be described thus: Inhibition of lipogenesis (incorporation of 14C-glucose into lipid) in swine adipose tissue slices. In kind it is cell-based. The settings on record: Sus scrofa, 100 micrograms per milliliter, 37° C., 2 hours, glucose-U-14C, insulin, 5% DMSO, triplicate, read-out: Percent Inhibition of lipogenesis compared to control. From the text: The manner in which they cause this effect is not known with certainty; it is believed that they interfere with the synthesis of fatty acids in the tissues. Their effectiveness for this purpose has been ascertained by immersing sales of swine adipose tissue in a liquid medium containing radioactive glucose and the test chemical for a period of time, then isolating the lipid from the treated tissue and determining the incorporation of the radioactive carbon into lipid by means of scintillation counting techniques. These tests were conducted in swine adipose tissues because in swine, the primary site of lipogenesis--i.e., fatty acid synthesis--appears to be adipose tissue.
Described in more detail, the tests were conducted according to the following general procedure:
150 milligrams of slices of swine adipose tissue were incubated at 37° C. for 2 hours with shaking in 3 milliliters of Krebs-Ringer bicarbonate solution containing one-half the normal calcium ion concentration, 60 micromoles of glucose, 0.5 micro-Curie of glucose-U^14 C, and 300 microunits of insulin, and 5% dimethylsulfoxide (DMSO). The test compounds were added as a solution or suspension in DMSO and were present at a concentration of 100 micrograms per milliliter of the incubation mixture.
The incubation was terminated by addition of 0.25 milliliter of 1 N sulfuric acid. The resulting mixture was extracted with a total of 25 milliliters of chloroform/methanol (2:1 v/v). The extracts were washed according to Folch et al. (J. Biol. Chem. 226, 497-509, (1957)), air dried, and counted in a liquid scintillation counter with 15 milliliters of counting fluid (two parts toluene containing 0.4% w/v New England Nuclear Omnifluor/1part Triton X-100). The tests were conducted in triplicate and were accompanied by control tests in which all ingredients,proportions and conditions were the same except that no test compound was included. From the data obtained were calculated the precent inhibition of lipid synthesis by the test compounds in each case. The data obtained from the tests are set out in Table 1,as the percent inhibition of lipogenesis compared to the results obtained in the control tests wherein only the test compound was omitted.
Regarding `COc1ccc2cc(C(=O)O)oc2c1OC` [Compound 14], the inhibition at 100 µg/mL came to 24%.

In the case of `O=C(O)c1cc2cccc(Cl)c2o1` [Compound 15], the inhibition at 100 µg/mL was 59%. For `O=C(O)c1cc2cc(C3CCCCC3)ccc2o1` [Compound 4], the inhibition at 100 µg/mL amounted to 91%.

On to `COc1ccc(-c2ccc3oc(C(=O)O)cc3c2)cc1` [Compound 17, 5-(4-methoxyphenyl)-2-benzofurancarboxylic acid], for which the inhibition at 100 µg/mL is 56%. The result for `O=C(O)c1cc2cc(-c3ccccc3)ccc2o1` [Compound 1, 5-phenyl-2-benzofurancarboxylic acid] reads 49%; that for `O=C(O)C1Cc2c(Oc3ccccc3)cccc2O1` (stereo not drawn) [Compound 23], 27%; that for `CCC(C)c1ccc2oc(C(=O)O)cc2c1` (stereo not drawn) [Compound 3], 64%. The result for `CCCCCCOc1ccc2c(c1)CC(C(=O)O)O2` (stereo not drawn) [Compound 21] reads 49%; that for `O=C(O)c1cc2cc(Cc3ccccc3)ccc2o1` [Compound 8], 87%; that for `O=C(O)C1Cc2ccc(Oc3ccccc3)cc2O1` (stereo not drawn) [Compound 22], 62%.

As to `CCCCCCOc1ccc2oc(C(=O)O)cc2c1` [Compound 7], the inhibition at 100 µg/mL was 78%. For `CC(=O)c1ccc(-c2ccc3oc(C(=O)O)cc3c2)cc1` [Compound 10, 5-(4-acetylphenyl)-2-benzofurancarboxylic acid] the value was 41%. The result for `O=C(O)C1Cc2cc(-c3ccc(Cl)cc3)ccc2O1` (stereo not drawn) [Compound 24] reads 56%; that for `O=C(O)c1cc2c(Oc3ccccc3)cccc2o1` [Compound 9, 4-phenoxy-2-benzofurancarboxylic acid], 83%; that for `O=C(O)C1Cc2cc(-c3ccccc3)ccc2O1` (stereo not drawn) [Compound 2, 2,3-dihydro-5-phenyl-2-benzofurancarboxylic acid], 50%. The result for `O=C(O)C1Cc2cc(C3CCCCC3)ccc2O1` (stereo not drawn) [Compound 19] reads 72%.

For `O=C(O)c1cc2cc(-c3ccc(O)cc3)ccc2o1` [Compound 16, 5-(4-hydroxyphenyl)-2-benzofurancarboxylic acid], the inhibition at 100 µg/mL was determined as 30%. For `O=C(O)c1cc2ccc(Oc3ccccc3)cc2o1` [Compound 5] the value was 86%.

For the molecule `COc1cccc2cc(C(=O)O)oc12` [Compound 13], the inhibition at 100 µg/mL was found to be 22%. The result for `O=C(O)c1cc2cc(-c3ccc(Cl)cc3)ccc2o1` [Compound 12, 5-(4-chlorophenyl)-2-benzofurancarboxylic acid] reads 55%; that for `CC(=O)Oc1ccc(-c2ccc3oc(C(=O)O)cc3c2)cc1` [Compound 11, 5-(4-(acetyloxy)phenyl)-2-benzofurancarboxylic acid], 80%; that for `CCC(C)c1ccc2c(c1)CC(C(=O)O)O2` (stereo not drawn) [Compound 18], 35%. For `O=C(c1ccccc1)c1ccc2oc(C(=O)O)cc2c1` [Compound 6] the value was 44%. For `O=C(O)C1Cc2cc(Cc3ccccc3)ccc2O1` (stereo not drawn) [Compound 20] the value was 40%.
